Assay results as given in ChEMBL document CHEMBL4808208, “Hepatoselective Dihydroquinolizinone Bis-acids for HBsAg mRNA Degradation” (ACS Med Chem Lett, 2021).
pEC50: −log10 of the molar value. Calls of active or inactive are those of the source. No cut-off for these calls is given here.

What was measured:
[1] = Cytotoxicity against human HepG2.2.15 cells assessed as reduction in cell viability measured after 4 days by CellTiter-Glo reagent based assay; set-up: species or system HepG2 2.2.15; conditions: time 4 day
Hepatitis B virus [2] = experiment: Antiviral activity against Hepatitis B virus infected in human HepG2.2.15 cells assessed as reduction in HBsAg level measured after 4 days by AlphaLisa assay; assay type: functional, organism-based; conditions: HepG2.2.15, 96 h
[3] = 1-Octanol/saturated PBS buffer distribution coefficient, logD of the compound incubated for 1 hr by LC-MS/MS analysis; assay type: physicochemical
Hepatitis B virus [4] = experiment: Antiviral activity against Hepatitis B virus infected in human HepG2.2.15 cells assessed as reduction in HBV pregenomic mRNA level at 1 uM measured after 5 days by Northern blot analysis; assay type: functional, organism-based; conditions: time 5.0 day
OATP1B1 = experiment: Ratio of drug uptake in HEK293 cells transfected with OATP1B1 (unknown origin) in absence of transporter inhibitor, estradiol-17beta-glucuronide to drug uptake in HEK293 cells in absence of transporter inhibitor, estradiol-17beta-glucuronide by LC-MS/MS analysis; assay type: ADME, cell-based; conditions: human, HEK293 cells transfected with OATP1B1 versus HEK293 cells
Hepatitis B virus [5] = experiment: Antiviral activity against Hepatitis B virus infected in human HepG2.2.15 cells assessed as reduction in HBV subgenomic 2.4/2.1 kb mRNA level at 1 uM measured after 5 days by Northern blot analysis; assay type: functional, organism-based; conditions: time 5.0 day
[6] = Apparent permeability across apical to basolateral side in MDCK-MDR1 cells at 1 uM measured after 120 mins by LC-MS/MS analysis; assay type: ADME, cell-based, Canis lupus familiaris; conditions: dog
[7] = Apparent permeability across basolateral to apical side in MDCK-MDR1 cells at 1 uM measured after 120 mins by LC-MS/MS analysis; assay type: ADME, cell-based, Canis lupus familiaris; conditions: dog
OATP1B3 = experiment: Ratio of drug uptake in HEK293 cells transfected with OATP1B3 (unknown origin) in absence of transporter inhibitor, estradiol-17beta-glucuronide to drug uptake in HEK293 cells in absence of transporter inhibitor, estradiol-17beta-glucuronide by LC-MS/MS analysis; assay type: ADME, cell-based; conditions: human, HEK293 cells transfected with OATP1B3 versus HEK293 cells
[8] = molecular target: T1, Solute carrier organic anion transporter family member 1B1 (Homo sapiens, UniProt Q9Y6L6); experiment: Substrate activity at OATP1B1 (unknown origin) expressed in HEK293 cells assessed as ratio of drug uptake in absence of transporter inhibitor,estradiol-17beta-glucuronide to drug uptake in presence of transporter inhibitor, estradiol-17beta-glucuronide by LC-MS/MS analysis; assay type: ADME, cell-based
T1 sequence (Q9Y6L6 whole entry): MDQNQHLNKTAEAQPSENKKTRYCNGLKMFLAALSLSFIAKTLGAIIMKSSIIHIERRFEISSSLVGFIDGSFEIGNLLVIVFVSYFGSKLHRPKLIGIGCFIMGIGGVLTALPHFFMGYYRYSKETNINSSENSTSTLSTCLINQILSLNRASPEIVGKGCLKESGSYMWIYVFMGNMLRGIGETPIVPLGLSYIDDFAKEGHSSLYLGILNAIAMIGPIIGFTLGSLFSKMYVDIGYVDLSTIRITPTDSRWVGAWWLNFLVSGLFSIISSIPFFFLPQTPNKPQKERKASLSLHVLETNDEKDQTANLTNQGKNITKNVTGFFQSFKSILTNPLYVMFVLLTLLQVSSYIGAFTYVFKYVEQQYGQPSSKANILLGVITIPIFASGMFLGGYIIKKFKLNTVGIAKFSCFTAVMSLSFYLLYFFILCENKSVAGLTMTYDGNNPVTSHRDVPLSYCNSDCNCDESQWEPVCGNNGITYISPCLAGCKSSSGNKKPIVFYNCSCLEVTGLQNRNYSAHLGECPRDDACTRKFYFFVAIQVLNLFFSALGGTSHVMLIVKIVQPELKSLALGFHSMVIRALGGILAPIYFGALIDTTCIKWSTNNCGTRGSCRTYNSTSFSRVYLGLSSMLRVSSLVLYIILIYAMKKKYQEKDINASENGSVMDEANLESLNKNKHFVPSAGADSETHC

[9] = molecular target: Terminal nucleotidyltransferase 4B (Homo sapiens) (UniProt Q8NDF8); experiment: Inhibition of Myc-DDK-tagged human PAPD5 expressed in HEK293 cells assessed as inhibition of poly-adenylation reaction using P32-labeled RNA oligonucleotides (5'-GCCUUUCAUCUCUAACUGCGAAAAAAAAAA-3') as substrate measured for 20 mins by phosphor imaging analysis; conditions: dose 0.37-10 µM
Terminal nucleotidyltransferase 4B (Homo sapiens), sequence (Q8NDF8 whole entry): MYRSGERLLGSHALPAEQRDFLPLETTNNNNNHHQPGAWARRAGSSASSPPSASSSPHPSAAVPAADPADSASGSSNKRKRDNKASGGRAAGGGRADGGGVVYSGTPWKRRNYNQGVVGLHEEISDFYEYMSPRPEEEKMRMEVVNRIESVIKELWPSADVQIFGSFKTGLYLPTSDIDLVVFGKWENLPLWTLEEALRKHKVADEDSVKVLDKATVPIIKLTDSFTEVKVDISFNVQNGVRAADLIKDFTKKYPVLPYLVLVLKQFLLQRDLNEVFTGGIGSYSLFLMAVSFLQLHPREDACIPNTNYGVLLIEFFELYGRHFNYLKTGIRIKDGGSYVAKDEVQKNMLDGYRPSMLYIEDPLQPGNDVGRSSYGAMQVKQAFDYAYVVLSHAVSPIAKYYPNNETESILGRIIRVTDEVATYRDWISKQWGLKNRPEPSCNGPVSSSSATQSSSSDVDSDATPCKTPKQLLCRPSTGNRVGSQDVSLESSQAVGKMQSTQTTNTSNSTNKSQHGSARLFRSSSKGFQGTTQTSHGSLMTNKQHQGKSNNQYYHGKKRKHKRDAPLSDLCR

[10] = molecular target: Terminal nucleotidyltransferase 4A (Homo sapiens) (UniProt Q5XG87); experiment: Inhibition of human PAPD7 expressed in HEK293 cells assessed as inhibition of poly-adenylation reaction using P32-labeled RNA oligonucleotides (5'-GCCUUUCAUCUCUAACUGCGAAAAAAAAAA-3') as substrate measured for 3 hrs by phosphor imaging analysis; assay type: cell-based; conditions: dose 0.37-10 µM
Terminal nucleotidyltransferase 4A (Homo sapiens), sequence (Q5XG87 whole entry): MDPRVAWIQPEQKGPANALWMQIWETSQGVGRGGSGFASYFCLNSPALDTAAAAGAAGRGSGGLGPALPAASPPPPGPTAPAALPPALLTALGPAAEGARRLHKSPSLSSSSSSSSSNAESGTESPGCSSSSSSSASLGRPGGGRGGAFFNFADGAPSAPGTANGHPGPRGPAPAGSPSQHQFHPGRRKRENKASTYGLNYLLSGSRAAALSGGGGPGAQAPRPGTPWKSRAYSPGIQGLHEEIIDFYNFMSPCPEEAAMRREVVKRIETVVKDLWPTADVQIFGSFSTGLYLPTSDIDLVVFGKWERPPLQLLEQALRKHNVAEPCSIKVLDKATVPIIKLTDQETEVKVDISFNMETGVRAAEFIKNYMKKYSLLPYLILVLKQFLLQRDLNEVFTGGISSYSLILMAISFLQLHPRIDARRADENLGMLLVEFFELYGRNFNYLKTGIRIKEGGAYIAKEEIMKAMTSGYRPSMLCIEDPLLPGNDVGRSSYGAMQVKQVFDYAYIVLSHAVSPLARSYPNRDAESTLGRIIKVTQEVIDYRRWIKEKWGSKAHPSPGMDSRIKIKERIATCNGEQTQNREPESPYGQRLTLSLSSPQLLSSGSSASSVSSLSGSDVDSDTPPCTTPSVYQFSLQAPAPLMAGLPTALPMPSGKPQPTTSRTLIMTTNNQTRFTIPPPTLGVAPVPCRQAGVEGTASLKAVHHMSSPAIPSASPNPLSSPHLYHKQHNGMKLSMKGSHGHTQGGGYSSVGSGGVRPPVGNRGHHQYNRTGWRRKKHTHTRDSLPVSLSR

[11] = molecular target: T2, Solute carrier organic anion transporter family member 1B3 (Homo sapiens, UniProt Q9NPD5); experiment: Substrate activity at OATP1B3 (unknown origin) expressed in HEK293 cells assessed as ratio of drug uptake in absence of transporter inhibitor, estradiol-17beta-glucuronide to drug uptake in presence of transporter inhibitor, estradiol-17beta-glucuronide by LC-MS/MS analysis; assay type: ADME, cell-based
T2 sequence (Q9NPD5 whole entry): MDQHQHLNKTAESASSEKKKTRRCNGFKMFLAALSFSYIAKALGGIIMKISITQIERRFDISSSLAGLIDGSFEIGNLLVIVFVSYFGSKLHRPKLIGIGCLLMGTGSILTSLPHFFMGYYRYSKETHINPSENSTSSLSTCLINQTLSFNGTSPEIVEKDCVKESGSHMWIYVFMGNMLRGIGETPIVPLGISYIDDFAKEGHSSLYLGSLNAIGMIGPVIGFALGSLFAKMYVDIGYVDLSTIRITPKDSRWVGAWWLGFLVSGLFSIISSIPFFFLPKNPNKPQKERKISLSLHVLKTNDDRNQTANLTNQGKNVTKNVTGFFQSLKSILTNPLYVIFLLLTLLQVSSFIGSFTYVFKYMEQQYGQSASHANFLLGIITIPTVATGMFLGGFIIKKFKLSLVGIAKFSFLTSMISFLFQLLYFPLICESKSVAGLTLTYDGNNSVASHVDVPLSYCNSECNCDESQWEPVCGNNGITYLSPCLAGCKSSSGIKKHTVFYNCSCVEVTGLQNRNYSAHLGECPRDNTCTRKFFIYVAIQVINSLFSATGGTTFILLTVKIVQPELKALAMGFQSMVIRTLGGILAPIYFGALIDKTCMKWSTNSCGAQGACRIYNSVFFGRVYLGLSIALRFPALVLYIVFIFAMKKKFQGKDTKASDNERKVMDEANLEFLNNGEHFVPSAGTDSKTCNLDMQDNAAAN

[12] = Efflux ratio of apparent permeability in MDCK-MDR1 cells at 1 uM after 120 mins by LC-MS/MS analysis; assay type: ADME, cell-based, Canis lupus familiaris; conditions: dog

| SMILES | CC50 at 96 h [1] | pEC50 (Hepatitis B virus [2]) | logD at 1 h [3] | other results |
| --- | --- | --- | --- | --- |
| COc1cc2c(cc1OCCCC(=O)O)C[C@@H](C(C)C)n1cc(C(=O)O)c(=O)cc1-2 | > 10000 nM | 6.00 | – | – |
| COc1cc2c(cc1OCCCCCC(=O)O)C[C@@H](C(C)C)n1cc(C(=O)O)c(=O)cc1-2 | > 10000 nM | 7.06 | – | – |
| COc1cc2c(cc1OCC(=O)O)C[C@@H](C(C)C)n1cc(C(=O)O)c(=O)cc1-2 | > 10000 nM | < 5.00 | – | – |
| COc1cc2c(cc1OCCCCC(=O)O)C[C@@H](C(C)C)n1cc(C(=O)O)c(=O)cc1-2 | > 10000 nM | 6.42 | – | – |
| COc1cc2c(cc1OCCCOCC(=O)O)C[C@@H](C(C)C)n1cc(C(=O)O)c(=O)cc1-2 | > 10000 nM | 5.56 | – | – |
| COc1cc2c(cc1OCCCCCCCC(=O)O)C[C@@H](C(C)C)n1cc(C(=O)O)c(=O)cc1-2 | > 10000 nM | 8.12 | 0.07 | – |
| COCCCOc1cc2c(cc1OC)-c1cc(=O)c(C(=O)O)cn1[C@H](C(C)C)C2 | > 10000 nM | 8.74 | 1.39 | Activity (Hepatitis B virus [4]): Active; uptake ratio (OATP1B1): 0.71; Activity (Hepatitis B virus [5]): Active; Papp A→B at 2 h, 1 µM [6]: 9.17 ×10⁻⁶ cm/s; Papp B→A at 2 h, 1 µM [7]: 35.8 ×10⁻⁶ cm/s; uptake ratio (OATP1B3): 0.56; Ratio [8]: 0.38; inhibition [9]: Dose-Dependent Effect; inhibition [10]: Dose-Dependent Effect; Ratio [11]: 0.42; efflux ratio at 2 h, 1 µM [12]: 3.9 |
| COc1cc2c(cc1OCCCCCCCCC(=O)O)C[C@@H](C(C)C)n1cc(C(=O)O)c(=O)cc1-2 | > 10000 nM | 8.34 | 0.7 | – |
